The values below are quoted from earlier work in article PMC3466449 (Scientific Reports, 2012).

Non-standard residues stand in square brackets, D forms with d. No end group written: not given here. pGlu = O=C1CC[C@@H](C(=O)O)N1

The data set has as its system C-domain of sACE. The conditions noted are these: C-domain over N-domain of sACE.

As for `O=C(N[C@@H](Cc1ccccc1)P(=O)(O)C1CCCC1C(=O)N[C@@H](Cc1c[nH]c2ccccc12)C(=O)O)OCc1ccccc1` (some centres unmarked) [RXPA380], the C-domain selectivity entry is “approximately 3000 fold”. As for “[pGlu]GLPPRPKIPP [BPPb, bradykinin potentiating peptide b]”, the C-domain selectivity entry was “about 260 fold”.
